Results from ChEMBL document CHEMBL3632483, “Synthesis and pharmacological evaluation of piperidine (piperazine)-substituted benzoxazole derivatives as multi-target antipsychotics” (Bioorg Med Chem Lett, 2015).
pIC50, pKi: −log10 of the molar value.

Tests used:
[1] = target: 5-hydroxytryptamine receptor 2A (Rattus norvegicus, UniProt P14842); assay: Displacement of [3H]ketanserine from 5-HT2A receptor in rat cerebral cortex homogenates after 60 mins by liquid scintillation counting; assay type: tissue-based
D(2) dopamine receptor = D(2) dopamine receptor (Rattus norvegicus, UniProt P61169); assay: Displacement of [3H]spiperone from dopaminergic D2 receptor in rat striatum homogenates after 60 mins by liquid scintillation counting
[2] = target: T1, 5-hydroxytryptamine receptor 1A (Rattus norvegicus, UniProt P19327); assay: Displacement of [3H]8-OH-DPAT from 5-HT1A receptor in rat cerebral cortex homogenates after 60 mins by liquid scintillation counting; assay type: tissue-based
T1 sequence (P19327 whole entry): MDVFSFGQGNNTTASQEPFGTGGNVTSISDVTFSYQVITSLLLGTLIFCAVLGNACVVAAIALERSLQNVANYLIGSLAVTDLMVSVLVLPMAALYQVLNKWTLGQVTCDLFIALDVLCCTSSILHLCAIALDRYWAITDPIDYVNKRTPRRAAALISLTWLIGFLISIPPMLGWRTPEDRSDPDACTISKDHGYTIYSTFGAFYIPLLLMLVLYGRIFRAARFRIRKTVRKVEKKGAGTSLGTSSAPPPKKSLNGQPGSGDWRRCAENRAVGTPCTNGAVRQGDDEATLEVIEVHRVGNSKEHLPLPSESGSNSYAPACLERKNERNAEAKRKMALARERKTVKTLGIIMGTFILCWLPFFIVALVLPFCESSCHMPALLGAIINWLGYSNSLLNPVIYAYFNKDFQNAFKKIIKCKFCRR

Mus musculus [3] = assay: Antipsychotic activity in po dosed Chinese Kun Ming mouse assessed as inhibition of apomorphine-induced climbing administered 30 mins before apomorphine challenge measured up to 30 mins; assay type: functional
Mus musculus [4] = assay: Antipsychotic activity in po dosed Chinese Kun Ming mouse assessed as inhibition of DOI-induced head twitch administered 60 mins before DOI challenge measured up to 15 mins; assay type: functional
Mus musculus [5] = assay: Toxicity in po dosed Chinese Kun Ming mouse assessed as induction of catalepsy by measuring immobility score of 30 seconds administered 30 mins before first assessment; assay type: organism-based; settings: in vivo, 0.5 h
Mus musculus [6] = assay: Neurotoxicity in Chinese Kun Ming mouse assessed as locomotor activity by measuring total distance traveled at 0.1 mg/kg, po administered 1 hr before test measured for 10 mins (reference value: 13415.6 +/- 9555.8 millimeter); assay type: toxicity, organism-based; settings: in vivo
Mus musculus [7] = assay: Neurotoxicity in Chinese Kun Ming mouse assessed as locomotor activity by measuring total distance traveled at 1 mg/kg, po administered 1 hr before test measured for 10 mins (reference value: 13415.6 +/- 9555.8 millimeter); assay type: toxicity, organism-based; settings: in vivo
Mus musculus [8] = assay: Neurotoxicity in Chinese Kun Ming mouse assessed as locomotor activity by measuring total distance traveled at 0.3 mg/kg, po administered 1 hr before test measured for 10 mins (reference value: 13415.6 +/- 9555.8 millimeter); assay type: toxicity, organism-based; settings: in vivo
[9] = Acute toxicity in Sprague-Dawley rat; assay type: organism-based; settings: in vivo
[10] = target: Voltage-gated inwardly rectifying potassium channel KCNH2 (Homo sapiens, UniProt Q12809); assay: Inhibition of human ERG expressed in HEK293 cells by whole-cell patch clamp method; assay type: cell-based
Mus musculus [11] = assay: Neurotoxicity in Chinese Kun Ming mouse assessed as locomotor activity by measuring total distance traveled at 10 mg/kg, po administered 1 hr before test measured for 10 mins (reference value: 13881.4 +/- 8595.8 millimeter); assay type: toxicity, organism-based; settings: in vivo
Mus musculus [12] = assay: Neurotoxicity in Chinese Kun Ming mouse assessed as locomotor activity by measuring total distance traveled at 3 mg/kg, po administered 1 hr before test measured for 10 mins (reference value: 13881.4 +/- 8595.8 millimeter); assay type: toxicity, organism-based; settings: in vivo
Mus musculus [13] = assay: Neurotoxicity in Chinese Kun Ming mouse assessed as locomotor activity by measuring total distance traveled at 1 mg/kg, po administered 1 hr before test measured for 10 mins (reference value: 13881.4 +/- 8595.8 millimeter); assay type: toxicity, organism-based; settings: in vivo

5-hydroxytryptamine receptor 2A, sequence (P14842 whole entry): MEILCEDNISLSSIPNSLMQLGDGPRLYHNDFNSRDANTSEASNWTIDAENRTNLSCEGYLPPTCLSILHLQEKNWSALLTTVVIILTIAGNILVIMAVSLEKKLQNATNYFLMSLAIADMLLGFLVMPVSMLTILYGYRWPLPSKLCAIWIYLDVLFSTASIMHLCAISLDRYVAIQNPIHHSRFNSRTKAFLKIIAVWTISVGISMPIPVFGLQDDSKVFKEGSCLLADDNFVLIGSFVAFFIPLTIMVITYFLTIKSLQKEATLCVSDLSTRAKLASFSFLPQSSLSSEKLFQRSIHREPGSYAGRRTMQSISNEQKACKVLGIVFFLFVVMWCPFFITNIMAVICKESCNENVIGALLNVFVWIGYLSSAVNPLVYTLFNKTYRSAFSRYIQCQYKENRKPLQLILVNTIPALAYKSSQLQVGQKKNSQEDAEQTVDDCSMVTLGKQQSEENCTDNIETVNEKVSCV
D(2) dopamine receptor, sequence (P61169 whole entry): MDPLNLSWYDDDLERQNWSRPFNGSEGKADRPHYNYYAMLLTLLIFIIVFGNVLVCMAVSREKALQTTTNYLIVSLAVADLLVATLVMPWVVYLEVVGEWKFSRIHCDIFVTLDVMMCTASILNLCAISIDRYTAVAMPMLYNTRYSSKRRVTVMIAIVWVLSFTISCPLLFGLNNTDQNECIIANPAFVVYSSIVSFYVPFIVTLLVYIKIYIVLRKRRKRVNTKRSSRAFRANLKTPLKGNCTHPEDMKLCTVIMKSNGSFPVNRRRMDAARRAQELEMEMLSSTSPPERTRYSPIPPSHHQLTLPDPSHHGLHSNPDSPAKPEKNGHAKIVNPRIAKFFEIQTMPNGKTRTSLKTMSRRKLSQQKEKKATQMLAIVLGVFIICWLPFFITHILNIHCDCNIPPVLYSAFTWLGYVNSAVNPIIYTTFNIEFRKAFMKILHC
Voltage-gated inwardly rectifying potassium channel KCNH2, sequence (Q12809 whole entry): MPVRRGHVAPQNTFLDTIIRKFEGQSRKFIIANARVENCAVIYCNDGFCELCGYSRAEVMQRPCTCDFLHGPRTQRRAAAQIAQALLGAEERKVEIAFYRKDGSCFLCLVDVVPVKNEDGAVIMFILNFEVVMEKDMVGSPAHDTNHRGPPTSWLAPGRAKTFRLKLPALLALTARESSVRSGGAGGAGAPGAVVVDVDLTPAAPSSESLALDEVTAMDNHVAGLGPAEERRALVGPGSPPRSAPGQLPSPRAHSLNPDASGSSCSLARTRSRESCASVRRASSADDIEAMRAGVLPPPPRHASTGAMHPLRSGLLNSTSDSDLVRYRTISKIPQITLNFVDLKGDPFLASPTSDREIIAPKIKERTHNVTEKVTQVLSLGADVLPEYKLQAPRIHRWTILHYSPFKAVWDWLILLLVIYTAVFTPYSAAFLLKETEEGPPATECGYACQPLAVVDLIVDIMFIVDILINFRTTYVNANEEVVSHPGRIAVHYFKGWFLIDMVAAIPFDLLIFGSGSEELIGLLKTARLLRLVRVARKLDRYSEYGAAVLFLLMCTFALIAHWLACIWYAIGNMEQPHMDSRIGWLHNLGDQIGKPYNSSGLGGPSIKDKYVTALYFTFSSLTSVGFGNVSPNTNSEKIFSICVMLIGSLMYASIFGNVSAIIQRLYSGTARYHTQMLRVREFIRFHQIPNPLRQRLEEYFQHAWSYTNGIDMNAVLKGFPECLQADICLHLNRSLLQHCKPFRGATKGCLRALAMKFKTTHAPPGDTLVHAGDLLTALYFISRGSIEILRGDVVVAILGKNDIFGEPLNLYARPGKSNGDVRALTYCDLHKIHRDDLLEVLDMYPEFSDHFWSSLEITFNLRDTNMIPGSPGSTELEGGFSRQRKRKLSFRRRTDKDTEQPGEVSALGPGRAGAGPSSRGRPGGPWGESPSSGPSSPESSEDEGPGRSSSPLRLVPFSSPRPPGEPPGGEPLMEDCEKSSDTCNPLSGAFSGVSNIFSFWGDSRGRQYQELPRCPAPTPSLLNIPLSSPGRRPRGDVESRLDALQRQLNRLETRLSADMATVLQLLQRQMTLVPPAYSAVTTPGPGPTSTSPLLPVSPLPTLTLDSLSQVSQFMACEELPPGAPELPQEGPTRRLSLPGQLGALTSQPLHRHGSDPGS

Row | Structure (SMILES) | pKi [1] | pKi (D(2) dopamine receptor) | pKi [2] | other results
1 | c1ccc2oc(-c3ccc(OCCCN4CCN(c5nsc6ccccc56)CC4)cc3)nc2c1 | 7.77 | 6.06 | 6.01 | –
2 | Cc1nc2n(c(=O)c1CCN1CCC(c3noc4cc(F)ccc34)CC1)CCCC2 [RISPERIDONE] | – | – | – | ED50 (Mus musculus [3]): 0.034 mg/kg; ED50 (Mus musculus [4]): 0.045 mg/kg; ED50 (Mus musculus [5]): 1.3 mg/kg
3 | O=C(CCCN1CCC(O)(c2ccc(Cl)cc2)CC1)c1ccc(F)cc1 [HALOPERIDOL] | – | – | – | Activity (Mus musculus [6]): 8980.9 mm; Activity (Mus musculus [7]): 744.5 mm; Activity (Mus musculus [8]): 3580.6 mm
4 | c1cnc(N2CCN(CCCOc3ccc(-c4nc5ccccc5o4)cc3)CC2)nc1 | 7.41 | 6.70 | 7.25 | –
5 | c1ccc2oc(-c3ccc(OCCCN4CCC(c5nc6ccccc6o5)CC4)cc3)nc2c1 | 6.61 | < 5.00 | 6.25 | –
6 | FC(F)(F)c1cccc(N2CCN(CCCOc3ccc(-c4nc5ccccc5o4)cc3)CC2)c1 | 5.35 | < 5.00 | < 5.00 | –
7 | c1ccc(N2CCN(CCCOc3ccc(-c4nc5ccccc5o4)cc3)CC2)cc1 | 5.33 | < 5.00 | < 5.00 | –
8 | Cc1cccc(N2CCN(CCCOc3ccc(-c4nc5ccccc5o4)cc3)CC2)c1C | 5.67 | < 5.00 | 5.33 | –
9 | CC(c1ccc(OCCCN2CCC(c3noc4cc(F)ccc34)CC2)cc1)c1nc2ccccc2o1 (stereo unspecified) | 7.52 | 7.22 | 7.05 | LD50 [9]: 614 mg/kg; pIC50 [10]: 6.00
10 | Fc1ccc2c(C3CCN(CCCOc4ccc(-c5nc6ccccc6s5)cc4)CC3)noc2c1 | 5.90 | < 5.00 | 5.76 | –
11 | COc1cc(OCCCN2CCC(c3noc4cc(F)ccc34)CC2)ccc1-c1nc2ccccc2o1 | 7.14 | 5.92 | 5.81 | –
12 | c1ccc2c(c1)OCC(CN1CCN(CCCOc3ccc(-c4nc5ccccc5o4)cc3)CC1)O2 (stereo unspecified) | 5.85 | < 5.00 | < 5.00 | –
13 | Cc1cc(-c2nc3ccccc3o2)ccc1OCCCN1CCC(c2noc3cc(F)ccc23)CC1 | 7.39 | 5.80 | 5.67 | –
14 | O=C1CN=C(c2ccccc2Cl)c2cc([N+](=O)[O-])ccc2N1 [CLONAZEPAM] | – | – | – | Activity (Mus musculus [11]): 655.7 mm; Activity (Mus musculus [12]): 4784.1 mm; Activity (Mus musculus [13]): 13188.4 mm
15 | Fc1ccc2c(C3CCN(CCCCOc4ccc(-c5nc6ccccc6o5)cc4)CC3)noc2c1 | 6.14 | 5.66 | 6.00 | –
16 | O=C(c1ccc(F)cc1F)C1CCN(CCCOc2ccc(-c3nc4ccccc4o3)cc2)CC1 | 6.70 | 6.39 | 6.94 | LD50 [9]: 369 mg/kg
17 | CN1CCN(C2=Nc3cc(Cl)ccc3Nc3ccccc32)CC1 [CLOZAPINE] | – | – | – | ED50 (Mus musculus [3]): 3.51 mg/kg; ED50 (Mus musculus [4]): 4.92 mg/kg; ED50 (Mus musculus [5]): 50.5 mg/kg
18 | COc1ccccc1N1CCN(CCCOc2ccc(-c3nc4ccccc4o3)cc2)CC1 | 7.53 | 6.33 | 7.33 | –
19 | Fc1ccc2c(C3CCN(CCCOc4ccc(-c5nc6ccccc6o5)c(F)c4)CC3)noc2c1 | 7.63 | 6.84 | 6.63 | –
20 | Cc1ccc2oc(-c3ccc(OCCCN4CCC(c5noc6cc(F)ccc56)CC4)cc3)nc2c1 | < 5.00 | < 5.00 | 7.12 | –
21 | Fc1ccc2c(C3CCN(CCCOc4ccc(-c5nc6cc(Cl)ccc6o5)cc4)CC3)noc2c1 | 6.87 | 6.18 | < 5.00 | –
22 | c1ccc(N2CCN(CCCOc3ccc(-c4nc5ccccc5o4)cc3)CC2)nc1 | 5.63 | < 5.00 | 5.70 | –
23 | Fc1ccc2c(C3CCN(CCCOc4ccc(CCc5nc6ccccc6o5)cc4)CC3)noc2c1 | 7.42 | 7.27 | 7.51 | LD50 [9]: 398 mg/kg; pIC50 [10]: 6.20
24 | c1ccc2oc(-c3ccc(OCCCN4CCC(c5nc6ccccc6s5)CC4)cc3)nc2c1 | 6.55 | < 5.00 | 6.84 | –
25 | COc1ccccc1N1CCN(CCCOc2ccc(-c3nc4ccccc4[nH]3)cc2)CC1 | 6.96 | 7.79 | 6.59 | –
26 | Fc1ccc2c(C3CCN(CCCOc4cccc(-c5nc6ccccc6o5)c4)CC3)noc2c1 | < 5.00 | < 5.00 | < 5.00 | –
27 | Clc1cccc(N2CCN(CCCOc3ccc(-c4nc5ccccc5o4)cc3)CC2)c1Cl | 5.54 | < 5.00 | < 5.00 | –
